Q: Which melting point does the source give for `COc1cc2c(cc1OCc1ccccc1)CCN(C(=O)C13CC4CC(CC(C4)C1)C3)C2` here?
A: 144 to 145 °C

Q: For `O=S(=O)(NCC12CC3CC(CC(C3)C1)C2)c1ccc(-c2ccccc2)cc1` [STX1371, Biphenyl-4-sulfonic acid (adamantan-1-ylmethyl)-amide], which melting point is on record?
A: 188 to 189.5 °C

Q: With `O=C(O)c1ccc(OCC(=O)C23CC4CC(CC(C4)C2)C3)cc1` [STX2318, 4-(2-Adamantan-1-yl-2-oxo-ethoxy)-benzoic acid] as the compound, how does the melting point read?
A: 185.2 °C

Q: Which melting point does the source give for `Cc1nc2c(Cl)c(NC(=O)C34CC5CC(CC(C5)C3)C4)ccc2s1` [STX1373, Adamantane-1-carboxylic acid (4-chloro-2-methyl-benzothiazol-5-yl)-amide] here?
A: 183.5 to 185.5 °C

Q: Which melting point does the source give for `O=C(C[S+]([O-])Cc1cccs1)C12CC3CC(CC(C3)C1)C2` (centres unmarked) [STX1929, 1-Adamantan-1-yl-2-(thiophen-2-ylmethanesulfinyl)-ethanone] here?
A: 95 to 98 °C

Q: Which melting point does the source give for `COc1cc2c(cc1OC)CN(C(=O)CC13CC4CC(CC(C4)C1)C3)CC2` here?
A: 165 to 167 °C

Q: For `Cc1ccc(CNC(=O)C2CCN(C(=O)C34CC5CC(CC(C5)C3)C4)CC2)cc1`, which melting point is on record?
A: 155.5 to 157 °C

Q: For `O=C(CC12CC3CC(CC(C3)C1)C2)N1CCN(C(=O)c2ccco2)CC1`, which melting point is on record?
A: 98 to 100 °C

Q: Which melting point does the source give for `O=C(N1CCN(Cc2ccc(Cl)cc2)CC1)C12CC3CC(CC(C3)C1)C2` here?
A: 141.5 to 143 °C

Q: Which melting point does the source give for `CN(CC(=O)C12CC3CC(CC(C3)C1)C2)Cc1cccs1.Cl` here?
A: 201 to 203 °C

Q: For `O=C(O)Cc1ccc(OCC(=O)C23CC4CC(CC(C4)C2)C3)cc1` [STX2364, [4-(2-Adamantan-1-yl-2-oxo-ethoxy)-phenyl]-acetic acid], which melting point is on record?
A: 153.4 °C

Q: For `Cc1nc2cc(NCC(=O)C(C)(C)C)ccc2s1` [STX1740, 3,3-Dimethyl-1-(2-methyl-benzothiazol-5-ylamino)-butan-2-one], which melting point is on record?
A: 108 to 111 °C

Q: For `CN(Cc1cccs1)C(=O)[C@H]1CC2C=CC1C2` (stereo partly drawn) [STX1709, Bicyclo[2.2.1]hept-5-ene-2-carboxylic acid methyl-thiophen-2-ylmethyl-amide (exo)], which melting point is on record?
A: 74 to 75 °C

Q: Which melting point does the source give for `O=C(N1CCN(c2ccc(Cl)cc2)CC1)C12CC3CC(CC(C3)C1)C2` [STX2120, Adamantan-1-yl-[4-(4-chloro-phenyl)-piperazin-1-yl]methanone] here?
A: 183 to 185 °C

Q: With `CCCc1ccc(S(=O)(=O)NC23CC4CC(CC(C4)C2)C3)cc1` [STX1341, N-Adamantan-1-yl-4-propyl-benzenesulfonamide] as the compound, how does the melting point read?
A: 178 to 178.5 °C

Q: For `O=C(CS(=O)(=O)c1cccs1)C12CC3CC(CC(C3)C1)C2` [STX2295, 1-Adamantan-1-yl-2-(thiophene-2-sulfonyl)-ethanone], which melting point is on record?
A: 117.5 to 119 °C

Q: Which melting point does the source give for `O=C(N(Cc1cccs1)CC1CCCCC1)C12CC3CC(CC(C3)C1)C2` here?
A: 112 to 115.5 °C

Q: With `O=C(CC12CC3CC(CC(C3)C1)C2)NCc1ccc(-c2ccccn2)s1` as the compound, how does the melting point read?
A: 187 to 188 °C

Q: With `CN(Cc1cccnc1)C(=O)C12CC3CC(CC(C3)C1)C2` [STX2135, Adamantane-1-carboxylic acid methyl-pyridin-3-ylmethyl-amide] as the compound, how does the melting point read?
A: 57 to 59.5 °C

Q: For `Cc1ccc(CN(C)C(=O)C23CC4CC(CC(C4)C2)C3)s1` [STX2067, Adamantane-1-carboxylic acid methyl-(5-methyl-thiophen-2-ylmethyl)-amide], which melting point is on record?
A: 83 to 85.5 °C

Q: Which melting point does the source give for `O=S(=O)(NC12CC3CC(CC(C3)C1)C2)c1cccs1` [STX1573, Thiophene-2-sulfonic acid adamantan-1-ylamide] here?
A: 129 to 131 °C

Q: With `Cc1cccc(CN2CCN(C(=O)CC34CC5CC(CC(C5)C3)C4)CC2)c1` [STX2403, 2-Adamantan-1-yl-1-[4-(3-methyl-benzyl)-piperazin-1-yl]-ethanone] as the compound, how does the melting point read?
A: 86 to 88 °C

Q: With `O=C(CS(=O)(=O)Cc1cccs1)C12CC3CC(CC(C3)C1)C2` [STX2299, 1-Adamantan-1-yl-2-(thiophen-2-ylmethanesulfonyl)-ethanone] as the compound, how does the melting point read?
A: 95.5 to 98 °C

Source: patent publication US20100120789A1, “Compound” (priority 2005, published 2010)
